These results are taken from ChEMBL document CHEMBL1153192, “Macrocyclic BACE-1 inhibitors acutely reduce Abeta in brain after po application” (Bioorg Med Chem Lett, 2010).

SMILES strings stand for the structures.

In data set [1] the test system is MDR1. As to the kind of experiment: Apparent permeability from apical to basolateral side of MDCK cells expressing MDR1. The following applies: dog. In kind it is ADME, cell-based, Canis lupus familiaris.
Data set [2] can be described thus: Plasma concentration in APP50/16 tg mouse at 60 umol/kg, po after 4 hrs. In kind it is ADME, organism-based. The following applies: APP50/16 transgenic.
Data set [3] can be described thus: Drug level in APP50/16 tg mouse brain at 60 umol/kg, po after 4 hrs. Type of data set: ADME, organism-based. The following applies: APP50/16 transgenic, read-out: Drug uptake.
The nature of data set [4]: Dissociation constant, pKa of the compound. In kind it is physicochemical.

As for `COCc1cc2cc(c1)C(=O)N[C@H]([C@H](O)CNC1(c3cccc(C(C)C)c3)CC1)Cc1cccc(c1)OCCCCN2`, the apical-to-basolateral permeability (Papp A→B) – broadly, the apparent permeability from the apical to the basolateral side of a cell layer – in data set [1] came out at 3.1 ×10⁻⁶ cm/s. Besides, the concentration at 4 h was determined as 1200 nM in data set [2] and 250 nM in data set [3]. In addition, the pKa – broadly, the negative logarithm of the acid dissociation constant – in data set [4] was determined as 7.3.
With `COCc1cc2cc(c1)C(=O)N[C@H]([C@H](O)CNC1(c3cccc(C(C)(C)C)c3)CCCC1)Cc1cccc(c1)OCCCCN2`, the Papp A→B in data set [1] stood at 1.4 ×10⁻⁶ cm/s.
The same measure, in the same setting: under `COCc1cc2cc(c1)C(=O)N[C@H]([C@H](O)CNC(COC)c1cccc(C(C)(C)C)c1)Cc1cccc(c1)OCCCCN2` (stereo not given in full) stands 1.3 ×10⁻⁶ cm/s; under `COCc1cc2cc(c1)C(=O)N[C@H]([C@H](O)CNC(C)(C)c1cccc(C(C)C)c1)Cc1cccc(c1)OCCCCN2`, 1.8 ×10⁻⁶ cm/s.
`Cc1cc2cc(n1)OCCCCOc1cccc(c1)C[C@@H]([C@H](O)CNC(C)c1cccc(C(C)C)c1)NC2=O` (stereo not given in full): the Papp A→B in data set [1] turned out to be 1.3 ×10⁻⁶ cm/s. In data set [4], this molecule registered a pKa of 8.5.
On to `Cc1cc2cc(n1)OCCCCOc1cccc(c1)C[C@@H]([C@H](O)CNC1(c3cccc(C(C)C)c3)CC1)NC2=O`, for which the Papp A→B in data set [1] was determined as 4 ×10⁻⁶ cm/s. Besides, the concentration at 4 h in data set [2] was determined as 3000 nM; in data set [3], 320 nM.
Regarding `Cc1cc2cc(n1)NCCCCOc1cccc(c1)C[C@@H]([C@H](O)CNCc1cccc(C(C)C)c1)NC2=O`, the Papp A→B in data set [1] was determined as 0.17 ×10⁻⁶ cm/s.
Turning to `COCc1cc2cc(c1)C(=O)N[C@H]([C@H](O)CNC(CF)c1cccc(C(C)(C)C)c1)Cc1cccc(c1)OCCCCN2` (stereo not given in full), in data set [1], the Papp A→B stood at 3.8 ×10⁻⁶ cm/s. In data set [4], the pKa was found to be 7.2.
For `CC(C)c1cccc(CNC[C@@H](O)[C@@H]2Cc3cccc(c3)OCCCCNc3cc(cc(N4C=COC4)c3)C(=O)N2)c1`, the Papp A→B in data set [1] came to 0.11 ×10⁻⁶ cm/s.
For the molecule `Cc1cc2cc(n1)OCCCCOc1cccc(c1)C[C@@H]([C@H](O)CNCc1cccc(C(C)C)c1)NC2=O`, the Papp A→B in data set [1] was 1.3 ×10⁻⁶ cm/s. For the same molecule, the concentration at 4 h in data set [2] is 30 nM; in data set [3], 40 nM.
Turning to `COCc1cc2cc(c1)C(=O)N[C@H]([C@H](O)CNC(c1cccc(C(C)(C)C)c1)C(F)(F)F)Cc1cccc(c1)OCCCCN2` (stereo not given in full), the Papp A→B in data set [1] was 5.6 ×10⁻⁶ cm/s. Besides, the pKa in data set [4] turned out to be 3.8.
In the case of `COCc1cc2cc(c1)C(=O)N[C@H]([C@H](O)CNCc1cccc(C(C)C)c1)Cc1cccc(c1)OCCCCN2`, the Papp A→B in data set [1] was 0.16 ×10⁻⁶ cm/s.
The same measure, in the same setting: the figure for `CCCS(=O)(=O)N(C)c1cc2cc(c1)C(=O)N[C@H]([C@H](O)CNC1(c3cccc(C(C)C)c3)CC1)Cc1cccc(c1)OCCCCN2` is 0.28 ×10⁻⁶ cm/s.
Same read-out and setting: under `CC(C)c1cccc(C2(NC[C@@H](O)[C@@H]3Cc4cccc(c4)OCCCCOc4cc(cc(N5CCCC5=O)c4)C(=O)N3)CC2)c1` stands 0.4 ×10⁻⁶ cm/s.
The same measure, in the same setting: under `CCCS(=O)(=O)N(C)c1cc2cc(c1)C(=O)N[C@H]([C@H](O)CNCc1cccc(C(C)C)c1)Cc1cccc(c1)OCCCCN2` stands 0.95 ×10⁻⁶ cm/s; under `CC(C)c1cccc(CNC[C@@H](O)[C@@H]2Cc3cccc(c3)OCCCCNc3cccc(c3)C(=O)N2)c1`, 2 ×10⁻⁶ cm/s.
In the case of `COCc1cc2cc(n1)OCCCCOc1cccc(c1)C[C@@H]([C@H](O)CNC1(c3cccc(C(C)C)c3)CC1)NC2=O`, the apical-to-basolateral permeability (Papp A→B) in data set [1] amounted to 4.9 ×10⁻⁶ cm/s. Also, the values for the concentration at 4 h in data set [2] and in data set [3] were 2200 nM and 540 nM, respectively.
With `COCc1cc2cc(c1)C(=O)N[C@H]([C@H](O)CNC1(c3cccc(C(C)(C)C)c3)CCC1)Cc1cccc(c1)OCCCCN2`, in data set [1], the apical-to-basolateral permeability (Papp A→B) stood at 1.2 ×10⁻⁶ cm/s.
